Laboratory results as given in patent US10703756B2, “Pyrrolo[2,3-D]pyrimidinyl, pyrrolo[2,3-B]pyrazinyl, pyrrolo[2,3-B]pyridinyl acrylamides and epoxides thereof” (Pfizer Inc., priority 2015, dated 2020).
pIC50: −log10 of the molar value.

What was measured:
[1] = molecular target: T1, JAK3 enzyme (Homo sapiens, UniProt P52333); experiment: JAK Caliper Enzyme Assay at 1 mM ATP; format: biochemical
T1 sequence (P52333 1-1124): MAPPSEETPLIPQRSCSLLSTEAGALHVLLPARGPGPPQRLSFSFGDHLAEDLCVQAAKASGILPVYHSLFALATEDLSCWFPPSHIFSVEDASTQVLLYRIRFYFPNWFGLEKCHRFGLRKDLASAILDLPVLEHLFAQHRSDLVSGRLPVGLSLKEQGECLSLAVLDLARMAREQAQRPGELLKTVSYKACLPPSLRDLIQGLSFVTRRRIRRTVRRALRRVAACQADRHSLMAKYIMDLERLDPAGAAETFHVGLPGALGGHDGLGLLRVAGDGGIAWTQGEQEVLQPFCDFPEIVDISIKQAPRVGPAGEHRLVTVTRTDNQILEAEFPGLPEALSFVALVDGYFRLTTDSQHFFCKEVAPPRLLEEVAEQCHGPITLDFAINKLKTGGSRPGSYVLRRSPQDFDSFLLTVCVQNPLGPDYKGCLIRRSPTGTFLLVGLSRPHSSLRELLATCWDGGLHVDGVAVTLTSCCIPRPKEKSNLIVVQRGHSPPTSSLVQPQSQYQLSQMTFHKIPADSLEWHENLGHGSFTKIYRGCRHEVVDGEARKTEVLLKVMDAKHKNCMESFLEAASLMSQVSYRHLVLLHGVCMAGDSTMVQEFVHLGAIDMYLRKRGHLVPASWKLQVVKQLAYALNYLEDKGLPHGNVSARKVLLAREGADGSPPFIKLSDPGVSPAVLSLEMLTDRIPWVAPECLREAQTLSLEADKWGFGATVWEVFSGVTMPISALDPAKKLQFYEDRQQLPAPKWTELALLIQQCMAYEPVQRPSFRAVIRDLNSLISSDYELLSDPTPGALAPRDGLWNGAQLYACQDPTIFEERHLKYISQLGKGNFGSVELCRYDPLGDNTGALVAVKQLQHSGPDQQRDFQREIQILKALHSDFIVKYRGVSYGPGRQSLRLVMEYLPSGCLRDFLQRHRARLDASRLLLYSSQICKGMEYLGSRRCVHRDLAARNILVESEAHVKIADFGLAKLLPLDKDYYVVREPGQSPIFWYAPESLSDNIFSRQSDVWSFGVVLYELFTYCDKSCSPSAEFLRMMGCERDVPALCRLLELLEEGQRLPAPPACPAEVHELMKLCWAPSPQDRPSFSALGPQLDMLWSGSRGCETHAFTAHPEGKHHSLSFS
Procedure, shortened: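 Peptide phosphorylation by the kinase, adjusted to 20%-30% conversion, is measured by microfluidic separation of substrate and product on a Caliper LC3000. Compounds run as 11-point half-log series from a 600 μM DMSO top concentration.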

[2] = system: IL-15 induced P-STAT5 in human PBMC; experiment: PBMC IL-15 Induced P-STAT5; format: cell-based; conditions: human PBMC, IL-15 final 41 ng/mL; read-out: PBMC IL15_pSTAT5_IC50
Procedure, shortened: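 Flow cytometry gated on total lymphocytes measured STAT5 staining (Alexa Fluor 647 antibody, overnight, 4 °C) in fixed, methanol-permeabilised human PBMC. Cells had received compound for 15 min at 37 °C (0.2% DMSO final), followed by 41 ng/mL final human IL-15 for 15 min.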

`C=CC(=O)N1CCC(Oc2cnc3[nH]cc(C(=O)N[C@H](C)CC)c3n2)CC1` [Example 227, 2-[(1-acryloylpiperidin-4-yl)oxy]-N-[(2R)-butan-2-yl]-5H-pyrrolo[2,3-b]pyrazine-7-carboxamide] was tested, and the pIC50 [1] was 7.66 and the pIC50 [2] was 6.84.
